Data taken from ChEMBL document CHEMBL1201862, “PubChem BioAssay data set” (2004).
Counter-ions that a name gives are not always drawn. Activity calls are given as the source filed them.

Experiments:
[1] = general mammalian cell viability loss – activator set, cherry-pick, cytotoxicity control for miR-122 modulator project, dose response (AID 720690); assay type: functional, cell-based;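 note: HEK293T human cells scored for general mammalian cytotoxicity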
cells [2] = assay type: functional, cell-based
[3] = molecular target: T1, Nuclear receptor subfamily 0 group B member 1 (Homo sapiens, UniProt P51843); assay type: functional, cell-based;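 note: HEK293T cells transfected with SF-1 and DAX-1 plus StAR promoter luciferase reporter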
T1 sequence (P51843 whole entry): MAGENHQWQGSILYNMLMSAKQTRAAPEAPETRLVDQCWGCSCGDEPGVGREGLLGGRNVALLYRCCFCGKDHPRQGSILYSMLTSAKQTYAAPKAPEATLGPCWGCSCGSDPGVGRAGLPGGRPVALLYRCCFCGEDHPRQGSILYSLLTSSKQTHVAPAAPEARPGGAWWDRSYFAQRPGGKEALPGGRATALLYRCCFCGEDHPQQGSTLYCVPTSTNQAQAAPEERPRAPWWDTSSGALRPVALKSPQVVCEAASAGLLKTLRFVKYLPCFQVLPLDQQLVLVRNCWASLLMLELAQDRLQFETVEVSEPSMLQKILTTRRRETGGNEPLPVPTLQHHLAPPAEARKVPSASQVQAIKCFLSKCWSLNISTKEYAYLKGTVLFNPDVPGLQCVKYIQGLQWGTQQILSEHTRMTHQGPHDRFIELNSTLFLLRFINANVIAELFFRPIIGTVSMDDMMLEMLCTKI

[4] = molecular target: Photoreceptor-specific nuclear receptor (Homo sapiens, UniProt Q9Y5X4); assay type: functional, cell-based;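 note: CHO-S cells with Gal4-NCOR and VP16-NR2E3 two-hybrid luciferase reporter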
Photoreceptor-specific nuclear receptor, sequence (Q9Y5X4 whole entry, the tested form may be a part): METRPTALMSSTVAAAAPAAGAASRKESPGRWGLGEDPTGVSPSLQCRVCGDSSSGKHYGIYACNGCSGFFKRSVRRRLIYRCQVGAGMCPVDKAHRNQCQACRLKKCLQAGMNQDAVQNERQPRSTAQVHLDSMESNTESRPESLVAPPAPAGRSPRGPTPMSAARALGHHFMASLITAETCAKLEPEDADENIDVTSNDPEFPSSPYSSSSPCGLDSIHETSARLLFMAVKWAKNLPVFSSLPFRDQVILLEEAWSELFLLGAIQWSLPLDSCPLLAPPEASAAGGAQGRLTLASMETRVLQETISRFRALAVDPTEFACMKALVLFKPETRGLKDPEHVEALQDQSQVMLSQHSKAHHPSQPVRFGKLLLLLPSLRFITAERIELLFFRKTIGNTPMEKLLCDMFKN

Beta-galactosidase = Beta-galactosidase (Escherichia coli, UniProt Q8VNN2); test: Dose response counterscreen for EBI2 assay utilizing the enzyme, b-galactosidase.; assay type: functional
Beta-galactosidase, sequence (Q8VNN2 whole entry): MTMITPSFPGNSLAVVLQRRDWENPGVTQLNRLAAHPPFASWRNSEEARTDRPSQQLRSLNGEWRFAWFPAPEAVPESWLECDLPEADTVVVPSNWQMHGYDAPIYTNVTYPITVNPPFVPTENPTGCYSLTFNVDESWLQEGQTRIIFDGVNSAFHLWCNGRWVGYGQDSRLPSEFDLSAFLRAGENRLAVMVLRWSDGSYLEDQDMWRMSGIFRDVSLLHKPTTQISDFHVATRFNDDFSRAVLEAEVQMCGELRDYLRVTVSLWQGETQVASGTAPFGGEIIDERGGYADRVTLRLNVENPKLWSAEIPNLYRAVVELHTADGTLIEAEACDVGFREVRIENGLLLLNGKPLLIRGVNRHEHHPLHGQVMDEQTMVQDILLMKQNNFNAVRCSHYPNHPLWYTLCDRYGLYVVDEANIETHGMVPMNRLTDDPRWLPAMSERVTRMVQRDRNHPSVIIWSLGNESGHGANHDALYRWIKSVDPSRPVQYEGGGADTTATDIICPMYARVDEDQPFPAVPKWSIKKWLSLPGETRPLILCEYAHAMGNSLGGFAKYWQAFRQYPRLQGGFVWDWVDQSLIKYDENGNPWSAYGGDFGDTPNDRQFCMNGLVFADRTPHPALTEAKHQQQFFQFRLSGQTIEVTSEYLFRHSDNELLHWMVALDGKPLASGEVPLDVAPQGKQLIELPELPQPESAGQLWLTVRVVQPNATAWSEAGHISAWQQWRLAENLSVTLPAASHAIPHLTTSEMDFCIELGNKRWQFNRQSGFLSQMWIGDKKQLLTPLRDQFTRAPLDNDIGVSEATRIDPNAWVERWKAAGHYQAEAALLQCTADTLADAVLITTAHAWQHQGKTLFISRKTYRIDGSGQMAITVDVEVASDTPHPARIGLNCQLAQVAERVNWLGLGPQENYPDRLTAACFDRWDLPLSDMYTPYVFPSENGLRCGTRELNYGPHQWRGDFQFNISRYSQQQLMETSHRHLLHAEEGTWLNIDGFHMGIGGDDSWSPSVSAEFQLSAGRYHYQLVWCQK

[5] = general mammalian cell viability loss – inhibitor set, cherry-pick, set 2, cytotoxicity control for miR-122 modulator project, dose response (AID 720697); assay type: functional, cell-based
[6] = activation of miR-122 Renilla sensor silencing – cell-based, Huh7 psiCHECK-miR122, Renilla luciferase, cherry-picked, dose response (AID 651956); assay type: functional;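 note: huh7 hepatoma cells stably carrying a psiCHECK-2 miR-122 sensor plasmid; renilla luciferase signal reporting endogenous miR-122 activity after 48 h compound exposure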
[7] = molecular target: T2, Sentrin-specific protease 6 (Homo sapiens, UniProt Q9GZR1); assay type: functional;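 note: Luminescence-based dose-response confirmatory assay of SENP6 inhibition, following up an ultra-high-throughput screen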
T2 sequence (Q9GZR1 whole entry): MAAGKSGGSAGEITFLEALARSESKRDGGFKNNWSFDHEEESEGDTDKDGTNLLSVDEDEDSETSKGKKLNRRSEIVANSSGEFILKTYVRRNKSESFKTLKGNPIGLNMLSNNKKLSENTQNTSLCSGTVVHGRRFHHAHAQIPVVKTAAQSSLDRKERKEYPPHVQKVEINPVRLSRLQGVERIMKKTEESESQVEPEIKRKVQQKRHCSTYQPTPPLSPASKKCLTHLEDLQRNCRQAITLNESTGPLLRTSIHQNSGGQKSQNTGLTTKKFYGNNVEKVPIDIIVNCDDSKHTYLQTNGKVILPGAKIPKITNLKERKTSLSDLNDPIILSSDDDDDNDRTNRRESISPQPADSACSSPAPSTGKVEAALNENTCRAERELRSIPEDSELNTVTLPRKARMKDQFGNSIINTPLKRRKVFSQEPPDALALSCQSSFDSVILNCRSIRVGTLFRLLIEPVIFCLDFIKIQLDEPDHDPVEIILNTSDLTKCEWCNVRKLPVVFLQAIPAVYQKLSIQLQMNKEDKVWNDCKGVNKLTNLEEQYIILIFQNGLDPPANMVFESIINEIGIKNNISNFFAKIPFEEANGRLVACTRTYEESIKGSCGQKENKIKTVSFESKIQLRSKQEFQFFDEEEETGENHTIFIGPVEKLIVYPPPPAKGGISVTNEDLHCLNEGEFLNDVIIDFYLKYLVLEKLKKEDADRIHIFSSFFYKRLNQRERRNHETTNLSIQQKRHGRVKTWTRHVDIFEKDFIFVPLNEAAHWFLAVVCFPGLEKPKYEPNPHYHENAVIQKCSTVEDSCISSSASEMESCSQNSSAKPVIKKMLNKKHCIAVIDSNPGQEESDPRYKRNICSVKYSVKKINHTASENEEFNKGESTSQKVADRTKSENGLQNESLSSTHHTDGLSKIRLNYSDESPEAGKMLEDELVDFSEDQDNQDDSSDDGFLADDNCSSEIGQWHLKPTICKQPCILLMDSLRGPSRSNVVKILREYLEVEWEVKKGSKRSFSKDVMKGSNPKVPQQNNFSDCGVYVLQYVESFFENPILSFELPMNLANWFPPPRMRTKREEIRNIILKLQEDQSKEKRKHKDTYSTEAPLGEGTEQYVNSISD

[8] = molecular target: T3, Sentrin-specific protease 7 (Homo sapiens, UniProt Q9BQF6); assay type: functional;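 note: Luminescence-based dose-response confirmation of ultra-high-throughput screening hits, measuring inhibition of SENP7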
T3 sequence (Q9BQF6 whole entry): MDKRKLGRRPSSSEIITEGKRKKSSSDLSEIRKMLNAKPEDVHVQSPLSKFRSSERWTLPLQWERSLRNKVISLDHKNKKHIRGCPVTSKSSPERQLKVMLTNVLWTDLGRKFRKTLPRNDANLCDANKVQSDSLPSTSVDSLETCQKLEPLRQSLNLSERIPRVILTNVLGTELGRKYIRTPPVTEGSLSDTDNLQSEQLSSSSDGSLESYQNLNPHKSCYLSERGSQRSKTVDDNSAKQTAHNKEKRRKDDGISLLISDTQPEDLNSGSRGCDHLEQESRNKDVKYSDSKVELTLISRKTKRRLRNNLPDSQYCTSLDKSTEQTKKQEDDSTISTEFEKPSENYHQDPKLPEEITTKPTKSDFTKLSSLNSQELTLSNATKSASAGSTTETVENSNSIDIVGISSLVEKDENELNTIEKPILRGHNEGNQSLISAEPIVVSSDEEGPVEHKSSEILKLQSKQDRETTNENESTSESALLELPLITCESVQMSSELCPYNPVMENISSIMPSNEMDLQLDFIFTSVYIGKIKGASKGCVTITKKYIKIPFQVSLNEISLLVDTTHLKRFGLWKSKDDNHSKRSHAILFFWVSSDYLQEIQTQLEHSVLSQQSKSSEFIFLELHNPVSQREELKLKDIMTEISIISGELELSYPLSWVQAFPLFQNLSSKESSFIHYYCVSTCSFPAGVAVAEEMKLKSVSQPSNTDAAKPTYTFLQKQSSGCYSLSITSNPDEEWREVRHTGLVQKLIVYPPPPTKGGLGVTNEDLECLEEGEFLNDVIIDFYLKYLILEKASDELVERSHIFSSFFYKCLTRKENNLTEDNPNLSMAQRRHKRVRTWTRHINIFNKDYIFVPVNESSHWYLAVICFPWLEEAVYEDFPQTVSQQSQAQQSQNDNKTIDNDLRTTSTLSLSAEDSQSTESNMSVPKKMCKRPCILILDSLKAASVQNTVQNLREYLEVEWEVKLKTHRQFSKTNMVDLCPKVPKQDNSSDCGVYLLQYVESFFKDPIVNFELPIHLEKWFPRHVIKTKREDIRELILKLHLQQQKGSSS

[9] = molecular target: T4, Sentrin-specific protease 8 (Homo sapiens, UniProt Q96LD8); assay type: functional
T4 sequence (Q96LD8 whole entry): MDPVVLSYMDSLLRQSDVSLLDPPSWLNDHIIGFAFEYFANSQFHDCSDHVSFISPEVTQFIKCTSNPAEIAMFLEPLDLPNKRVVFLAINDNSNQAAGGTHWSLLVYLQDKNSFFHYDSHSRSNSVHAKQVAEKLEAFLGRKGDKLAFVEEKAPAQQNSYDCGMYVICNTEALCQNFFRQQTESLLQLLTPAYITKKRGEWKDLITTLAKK

Caspase-3 = molecular target: T5, Caspase-3 (Homo sapiens, UniProt P42574); assay type: functional;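 note: Dose-response selectivity test against caspase-3 for candidate inhibitors of sentrin-specific proteases (SENPs)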
T5 sequence (P42574 whole entry): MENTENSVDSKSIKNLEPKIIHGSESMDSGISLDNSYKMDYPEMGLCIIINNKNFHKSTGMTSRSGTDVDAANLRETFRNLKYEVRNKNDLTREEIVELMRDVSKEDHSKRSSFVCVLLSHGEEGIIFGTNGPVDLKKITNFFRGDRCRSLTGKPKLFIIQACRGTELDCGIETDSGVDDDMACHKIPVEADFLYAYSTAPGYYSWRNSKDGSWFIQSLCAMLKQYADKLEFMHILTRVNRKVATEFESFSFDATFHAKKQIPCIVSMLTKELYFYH

[10] = molecular target: Dual specificity tyrosine-phosphorylation-regulated kinase 1A (Rattus norvegicus, UniProt Q63470); assay type: biochemical, Homo sapiens
cells [11] = assay type: functional
[12] = non-specific 3'UTR reporter inhibition in Clone20-Shn3RL – cell-based, Renilla luciferase, cherry-picked, counter-screen for Shn3 inhibitor project, dose response (AID 624133); assay type: functional
[13] = reduction of Shn3 3'UTR-driven luciferase in osteoblasts – cell-based, Clone20 osteoblasts, firefly luciferase, cherry-picked, dose response (AID 624132); assay type: functional;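 note: firefly luciferase luminescence from reporter carrying the Shn3 3'UTR in osteoblasts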
[14] = loss of viability in HepG2 cells – cell-based, CellTiter-Glo, cherry-picked, cytotoxicity control for Shn3 inhibitor project, dose response (AID 624134); assay type: functional
[15] = molecular target: T4, Sentrin-specific protease 8; assay type: functional; remark: listed apart in the source
[16] = molecular target: T4, Sentrin-specific protease 8; assay type: functional; remark: listed apart in the source
INS1 = test: INS-1E survival protection against cytokine death – cell-based, luminescence, retest, dose response (AID 449756); assay type: functional; conditions: Rattus norvegicus;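 note: cell death triggered by IL-1 beta plus TNF-alpha plus IFN-gamma mixture; protective hits raise ATP signal compared with cytokine alone wells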
Mu-type opioid receptor = Mu-type opioid receptor (Homo sapiens, UniProt P35372); assay type: functional, cell-based;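 note: U2OS cells with beta-arrestin recruitment to OPRM1 by beta-gal complementation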
Mu-type opioid receptor, sequence (P35372 whole entry): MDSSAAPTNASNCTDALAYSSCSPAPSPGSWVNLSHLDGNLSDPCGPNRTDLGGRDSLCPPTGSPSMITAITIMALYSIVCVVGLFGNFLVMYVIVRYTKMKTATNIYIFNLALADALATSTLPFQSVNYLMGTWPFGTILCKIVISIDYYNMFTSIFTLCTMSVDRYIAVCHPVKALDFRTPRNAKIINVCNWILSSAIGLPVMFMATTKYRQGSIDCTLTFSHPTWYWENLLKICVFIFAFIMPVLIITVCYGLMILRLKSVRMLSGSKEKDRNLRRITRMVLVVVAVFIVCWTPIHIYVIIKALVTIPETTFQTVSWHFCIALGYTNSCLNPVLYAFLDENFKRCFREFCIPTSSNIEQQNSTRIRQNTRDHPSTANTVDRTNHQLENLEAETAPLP

[17] = molecular target: FAD-linked sulfhydryl oxidase ALR (Homo sapiens, UniProt P55789); test: ALR-catalysed DTT oxidation blockers – biochemical, H2O2 detection, luminescence, cherry-pick, dose response (AID 493248)
FAD-linked sulfhydryl oxidase ALR, sequence (P55789 whole entry): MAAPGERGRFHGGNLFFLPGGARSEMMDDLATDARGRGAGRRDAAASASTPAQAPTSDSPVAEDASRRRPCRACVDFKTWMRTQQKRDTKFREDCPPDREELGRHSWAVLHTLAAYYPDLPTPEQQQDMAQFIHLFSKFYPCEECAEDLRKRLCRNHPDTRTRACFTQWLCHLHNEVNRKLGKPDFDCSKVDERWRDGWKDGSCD

## C/C=C/c1ccc([C@@H]2[C@H](CO)N[C@H]2CN(CC(C)C)C(=O)c2ccccn2)cc1
[1]
  AC50: 23.5 µM (active)

## COc1ccc(/C(C)=N/Nc2nccnc2Cl)cc1
Cells [2]
  IC50: > 67.6 µM (inactive)
[3]
  IC50: > 67.6 µM (inactive)

## CCNc1nc2c(c(=O)n(C)c(=O)n2C)n1Cc1ccc(Cl)cc1
[4]
  IC50: 14.7 µM (inactive)

## CCOC(=O)N1CCN(C(=O)/C=C/c2ccc(C(C)(C)C)cc2)CC1
Beta-galactosidase
  IC50: > 80 µM (inactive)

## C[C@@H]1CN([C@H](C)CO)C(=O)c2cc(NC(=O)Nc3ccc(C(F)(F)F)cc3)ccc2O[C@@H]1CN(C)CC1CCCCC1
[5]
  AC50: 10.2 µM (active)
[6]
  AC50: 32.8 µM (active)

## Cc1cc(C)cc(NC(=O)CCc2nc3sc4c(c3c(=O)[nH]2)CCCC4)c1
[4]
  IC50: 0.277 µM (active)

## O=C(Nc1cccc(Cl)c1)c1ccc(OC(=S)N2CCOCC2)cc1
[7]
  IC50: > 100 µM (inactive)
[8]
  IC50: 2.85 µM (active)
[9]
  IC50: > 100 µM (inactive)
Caspase-3
  IC50: 31.4 µM (active)

## Cc1nc(C)c(-c2csc(Nc3ncccc3C)n2)s1
[7]
  IC50: 5.89 µM (active)
[8]
  IC50: 3.96 µM (active)
[9]
  IC50: > 100 µM (inactive)
Caspase-3
  IC50: 16.4 µM (active)

## CSc1ccc(/C=C/C(=O)c2ccc(NC(=O)Cc3ccccc3)cc2)cc1
Beta-galactosidase
  IC50: > 80 µM (inactive)

## CC1Cc2cc(/C=C3/SC(=S)NC3=O)ccc2O1 (stereo not drawn)
[7]
  IC50: 8.72 µM (active)
[10]
  AC50: 0.308 µM (active)
[8]
  IC50: 9.86 µM (active)
Cells [11]
  IC50: 39.3 µM (active)
[9]
  IC50: 39.1 µM (active)
Caspase-3
  IC50: 16.9 µM (active)

## COc1ccc(C(=O)/C=C/C(=O)N(CC(=O)NCCC(C)C)Cc2cccs2)c(O)c1
[12]
  AC50: 13.2 µM (active)
[13]
  AC50: 3.49 µM (active)
[14]
  AC50: 51.7 µM (active)

## O=C(N/N=C/c1ccc([N+](=O)[O-])o1)c1ccncc1
[15]
  IC50: 39.9 µM (active)
[16]
  IC50: 35.3 µM (active)

## Cc1csc(NC(=O)Cc2nn(C)c(=O)c3ccccc23)n1
[12]
  AC50: 5.18 µM (active)
[13]
  AC50: 6.82 µM (active)
[14]
  AC50: 46.5 µM (active)

## COc1cc(-c2nc3cc(C)ccn3c2NC2CCCCC2)ccc1-c1ccc(C(C)=O)cc1
Beta-galactosidase
  IC50: 118 µM (inactive)

## CN(Cc1ccccc1)C(=O)COC(=O)c1ccccc1Nc1ccccc1
[5]
  AC50: 8.73 µM (active)

## O=NN(CC(=O)NNc1ccccc1)CC(=O)NNc1ccccc1
[4]
  IC50: 18.3 µM (inactive)

## COCCC1CCCCN1C(=O)c1cc(COc2ccc(-n3cncn3)cc2)on1 (stereo not drawn)
INS1
  AC50: 3.08 µM (active)
[12]
  AC50: 1.22 µM (active)
[13]
  AC50: 0.57 µM (active)
[14]
  AC50: 50.5 µM (active)

## CCC(CO)Oc1cc(NCc2ccncc2)c2ncn(C(C)C)c2c1 (stereo not drawn)
[15]
  IC50: 37.6 µM (active)
[16]
  IC50: 24.5 µM (active)

## CCCN1C[C@H](CSC)C[C@@H]2c3cccc4[nH]cc(c34)C[C@H]21 [PERGOLIDE MESYLATE]
Mu-type opioid receptor
  EC50: 92.5 µM (inactive)

## CCN(C(=O)c1cc2c(=O)n3ccccc3nc2n1C)C1CCCCC1
Cells [2]
  IC50: > 67.5 µM (inactive)
[3]
  IC50: > 67.5 µM (inactive)

## O=C(Nc1ccc(N2CCN(C(=O)c3ccccc3)CC2)cc1)c1ccc2c(c1)OCO2
[4]
  IC50: 13.3 µM (inactive)

## CCN1CCC2(CC1)N=C(c1ccc(F)cc1)C(=S)N2C(=O)c1ccc(C)cc1
[15]
  IC50: > 100 µM (inactive)
[16]
  IC50: 15.3 µM (active)

## O=C(Nc1ccc(C(=O)N2CCCCC2)cc1)C1=CSCCO1
Cells [2]
  IC50: > 67.6 µM (inactive)
[3]
  IC50: > 67.6 µM (inactive)

## Cc1ccc(/C=N/Nc2ccc3ccccc3n2)o1
Cells [2]
  IC50: > 67.5 µM (inactive)
[17]
  AC50: 5.31 µM (active)
[3]
  IC50: > 67.5 µM (inactive)

## O=S(=O)(Nc1nccs1)c1ccc(NS(=O)(=O)c2cccs2)cc1
[5]
  AC50: 5.42 µM (active)
[6]
  AC50: 20.1 µM (active)
